The record followed here is patent US8394786B2, “Quinazoline derivatives” (Janssen Pharmaceutica N.V., priority 2003, dated 2013).

Molecules are shown by their SMILES.

One data set deals with EGFR (Homo sapiens, UniProt P00533). In words: In vitro inhibition of EGFR, Flash Plate or glass-fiber filter technology (C2). It is filed as biochemical. Set-up: 0.5 μg EGFR-kinase domain/well. To be noted: EGFR-kinase domain, 5.0 μM unlabeled ATP, read-out: Kinase activity.(C2): pIC50 (converted). In a few lines:
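Two radiometric formats were used, each with 5.0 μM unlabeled ATP, [33P]ATP, 0.5 μg EGFR kinase domain and compounds from 1·10^−10 to 1·10^−6 M. Glass-fiber filter: 25° C for 10 min, pH 7.5, Mn2+/Mg2+, acid-stopped, phosphorimager read. Streptavidin Flash Plate: biotinylated poly(GT), pH 8.0, 30° C for 60 min.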

In the next data set the test system is SKOV3 cells. Briefly: Serum starved proliferation assay on the ovarian carcinoma SKOV3 cells (C3). To be noted: Homo sapiens, SK-OV-3, 72 h, EGF stimulated (100 ng/ml, 72 hours, serum free) or 72 hours with compounds; MTT cell viability assay; read-out: SKOV3 cell (C3): pIC50 (converted). The data set is classed as cell-based. A digest of the protocol: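 MTT viability read-out in SKOV3 cells after a 24 h pre-incubation in 10% FCS, in one of two formats. EGF-stimulated version: serum-free compound exposure followed by 100 ng/ml EGF (final) for 72 h at 37 °C, 5% CO2. Otherwise, compound alone for 72 h.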

Sequence of EGFR (P00533 712-979 limits assumed): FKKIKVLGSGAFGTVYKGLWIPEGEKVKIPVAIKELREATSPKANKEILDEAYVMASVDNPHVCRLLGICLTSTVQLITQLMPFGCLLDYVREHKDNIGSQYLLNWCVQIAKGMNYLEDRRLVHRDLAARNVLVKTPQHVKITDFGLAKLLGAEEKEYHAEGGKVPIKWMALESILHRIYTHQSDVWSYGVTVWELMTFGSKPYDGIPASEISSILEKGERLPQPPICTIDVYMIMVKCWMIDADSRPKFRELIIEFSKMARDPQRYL

Broadly, the melting point is the temperature, or range, at which the solid turns liquid. `COc1cc2ncnc3c2cc1OCCNC(=O)C(C)(C)NC(=O)Cc1ccc(Cl)cc1N3` [Compound 65, 4,6-ethanediylidene-8H-pyrimido[4,5-b][6,1,9,12]benzoxatriazacyclohexadecine-11,14-dione, 18-chloro-9,10,12,13,15,20-hexahydro-21-methoxy-12,12-dimethyl-] gave a melting point of 285 °C. The IC50 at EGFR is 12.6 nM. For the same molecule, in the data set with SKOV3 cells, the IC50 is 20 nM.
The molecule `COc1cc2ncnc3c2cc1OCCCNC(=O)C1CCCN1Cc1ccc(Cl)cc1N3` (stereo not drawn) [Compound 77, 4,6-ethanediylidene-12H-pyrimido[4,5-b]pyrrolo[2,1-l][6,1,10,13]benzoxatriazacyclohexadecin-12-one, 20-chloro-8,9,10,11,12a,13,14,15,17,22-decahydro-23-methoxy-] showed a melting point of 129.8 to 132.8 °C.
`COc1cc2ncnc3c2cc1OCCCNC(=O)C1CCCN1Cc1ccc(Cl)cc1N3` (stereo not drawn) [Compound 84, 4,6-ethanediylidene-12H-pyrimido[4,5-b]pyrrolo[2,1-l][6,1,10,13]benzoxatriazacyclohexadecin-12-one, 20-chloro-8,9,10,11,12a,13,14,15,17,22-decahydro-23-methoxy-] returned a melting point of 231.9 to 232.8 °C.
Regarding `COc1cc2ncnc3c2cc1OCCNC(=O)C1CCN(CC1)Cc1ccc(Cl)cc1N3` [Compound 87, 8H-4,6-ethanediylidene-12,15-ethanopyrimido[4,5-b][6,1,9,14]benzoxatriazacycloheptadecin-11(12H)-one, 19-chloro-9,10,13,14,16,21-hexahydro-24-methoxy-], the melting point was 246.6 to 248.2 °C.
On to `COc1cc2ncnc3c2cc1OCCNC(=O)C(C)N(C)Cc1ccc(Cl)cc1N3` (stereo not drawn) [Compound 89, 4,6-ethanediylidenepyrimido[4,5-b][6,1,9,12]benzoxatriazacyclopentadecin-11(8H)-one, 17-chloro-9,10,12,13,14,19-hexahydro-20-methoxy-12,13-dimethyl-], for which the melting point worked out at 265 °C.
Take `CCN1CC(=O)NCCOc2cc3c(ncnc3cc2OC)Nc2cc(Cl)ccc2C1` [Compound 90, 4,6-ethanediylidenepyrimido[4,5-b][6,1,9,12]benzoxatriazacyclopentadecin-11(8H)-one, 17-chloro-13-ethyl-9,10,12,13,14,19-hexahydro-20-methoxy-]: the melting point was 261.1 to 262 °C.
Still for that read-out and setting: in the case of `COc1cc2ncnc3c2cc1OCCNC(=O)C(CO)NCc1ccc(Cl)cc1N3` (stereo not drawn) [Compound 91, 4,6-ethanediylidenepyrimido[4,5-b][6,1,9,12]benzoxatriazacyclopentadecin-11(8H)-one, 17-chloro-9,10,12,13,14,19-hexahydro-12-(hydroxymethyl)-20-methoxy-] it was 276.3 to 277.4 °C; in that of `COc1cc2ncnc3c2cc1OCCCNC(=O)CN1CCN(CC1)Cc1ccc(Cl)cc1N3` [Compound 93, 4,6-ethanediylidene-14,17-ethanopyrimido[4,5-b][6,1,10,13,16]benzoxatetraazacyclononadecin-12(13H)-one, 21-chloro-8,9,10,11,15,16,18,23-octahydro-26-methoxy-], 286.8 to 287.6 °C; in that of `COc1cc2ncnc3c2cc1OCCCNC(=O)C1CCCN(Cc2ccc(Cl)cc2N3)C1` (stereo not drawn) [Compound 95, 12H-4,6-ethanediylidene-13,17-methanopyrimido[4,5-b][6,1,10,16]benzoxatriazacyclononadecin-12-one, 21-chloro-8,9,10,11,13,14,15,16,18,23-decahydro-25-methoxy-], 240.1 to 242.8 °C.
`COc1cc2ncnc3c2cc1OCC(=O)NC(CO)C(=O)NCCc1ccc(Cl)cc1N3` (stereo not drawn) [Compound 148, 4,6-ethanediylidene-8H-pyrimido[4,5-b][6,1,9,12]benzoxatriazacyclohexadecine-9,12-dione, 18-chloro-10,11,13,14,15,20-hexahydro-11-(hydroxymethyl)-21-methoxy-]: the values for the IC50 at EGFR and with SKOV3 cells were 251 nM and 10000 nM, respectively.
The matching figures for `COc1cc2ncnc3c2cc1OCC(=O)N1CC(O)CC1C(=O)NCCc1ccc(Cl)cc1N3` (stereo not drawn) [Compound 149, 1,21-ethanediylidene-5H-pyrimido[4,5-b]pyrrolo[1,2-i][6,1,9,12]benzoxatriazacyclohexadecine-13,18(19H)-dione, 7-chloro-10,11,12,13a,14,15,16-heptahydro-15-hydroxy-23-methoxy-]: 126 nM and 1580 nM.
The matching figures for `COc1cc2ncnc3c2cc1OCC(=O)NCC(=O)NCc1ccc(Cl)cc1N3` [Compound 151, 4,6-ethenopyrimido[4,5-b][6,1,9,12]benzoxatriazacyclopentadecine-9,12(8H,13H)-dione, 17-chloro-10,11,14,19-tetrahydro-20-methoxy-]: 3160 nM and 10000 nM.
`COc1cc2ncnc3c2cc1OCC(=O)NCCC(=O)NCc1ccc(Cl)cc1N3` [Compound 152, 4,6-etheno-8H-pyrimido[4,5-b][6,1,9,13]benzoxatriazacyclohexadecine-9,13(10H,14H)-dione, 18-chloro-11,12,15,20-tetrahydro-21-methoxy-]: the results for the IC50 on EGFR and with SKOV3 cells were 31.6 nM and 10000 nM, respectively.
Taken in the same sequence, the figures for `COc1cc2ncnc3c2cc1OCCCC(=O)NCC(=O)NCc1ccc(Cl)cc1N3` [Compound 153, 4,6-ethenopyrimido[4,5-b][6,1,11,14]benzoxatriazacycloheptadecine-11,14(8H,15H)-dione, 19-chloro-9,10,12,13,16,21-hexahydro-22-methoxy-] were 15.8 nM and 794 nM.
With `COc1cc2ncnc3c2cc1OCCCC(=O)NCCCC(=O)NCc1ccc(Cl)cc1N3` [Compound 154, 4,6-ethenopyrimido[4,5-b][6,1,11,16]benzoxatriazacyclononadecine-11,16(8H,17H)-dione, 21-chloro-9,10,12,13,14,15,18,23-octahydro-24-methoxy-], the IC50 was 39.8 nM at EGFR and 2510 nM in the data set with SKOV3 cells.
The matching figures for `COc1cc2ncnc3c2cc1OCCCC(=O)NCCC(=O)NCc1ccc(Cl)cc1N3` [Compound 155, 4,6-etheno-8H-pyrimido[4,5-b][6,1,11,15]benzoxatriazacyclooctadecine-11,15(12H,16H)-dione, 20-chloro-9,10,13,14,17,22-hexahydro-23-methoxy-]: 316 nM and 1000 nM.
`COc1cc2ncnc3c2cc1OCC(=O)NCCCC(=O)NCc1ccccc1N3` [Compound 158, 4,6-ethanediylidenepyrimido[4,5-b][6,1,9,14]benzoxatriazacycloheptadecine-9,14(8H,15H)-dione, 10,11,12,13,16,21-hexahydro-22-methoxy-]: the results for the IC50 at EGFR and with SKOV3 cells were 5010 nM and 10000 nM, respectively.
On to `COc1cc2ncnc3c2cc1OCC(=O)N(C)CC(=O)NCc1ccc(Cl)cc1N3` [Compound 159, 4,6-ethanediylidenepyrimido[4,5-b][6,1,9,12]benzoxatriazacyclopentadecine-9,12(8H,13H)-dione, 17-chloro-10,11,14,19-tetrahydro-20-methoxy-10-methyl-], for which the IC50 is 316 nM at EGFR and 2000 nM in the data set on SKOV3 cells.
The matching figures for `COc1cc2ncnc3c2cc1OCC(=O)NCC(=O)NCCc1ccc(Cl)cc1N3` [Compound 160, 4,6-ethanediylidene-8H-pyrimido[4,5-b][6,1,9,12]benzoxatriazacyclohexadecine-9,12-dione, 18-chloro-10,11,13,14,15,20-hexahydro-21-methoxy-]: 63.1 nM and 631 nM.
Regarding `COc1cc2ncnc3c2cc1OCC(=O)NCCCC(=O)NCCc1ccc(Cl)cc1N3` [Compound 161, 4,6-ethanediylidene-8H-pyrimido[4,5-b][6,1,9,14]benzoxatriazacyclooctadecine-9,14-dione, 20-chloro-10,11,12,13,15,16,17,22-octahydro-23-methoxy-], the IC50 at EGFR was 63.1 nM; with SKOV3 cells, 1260 nM.
Take `COc1cc2ncnc3c2cc1OCCCCC(=O)NCCC(=O)NCc1ccc(Cl)cc1N3` [Compound 162, 4,6-ethanediylidenepyrimido[4,5-b][6,1,12,16]benzoxatriazacyclononadecine-12,16(13H,17H)-dione, 21-chloro-8,9,10,11,14,15,18,23-octahydro-24-methoxy-]: the IC50 on EGFR is 158 nM; with SKOV3 cells, 50.1 nM.
The matching figures for `COc1cc2ncnc3c2cc1OCCCCC(=O)NCCCC(=O)NCc1ccc(Cl)cc1N3` [Compound 163, 4,6-ethanediylidene-8H-pyrimido[4,5-b][6,1,12,17]benzoxatriazacycloeicosine-12,17(18H)-dione, 22-chloro-9,10,11,13,14,15,16,19,24-nonahydro-25-methoxy-]: 100 nM and 398 nM.
Take `COc1cc2ncnc3c2cc1OCC(=O)N(C)CC(=O)NCCc1ccc(Cl)cc1N3` [Compound 164, 4,6-ethanediylidene-8H-pyrimido[4,5-b][6,1,9,12]benzoxatriazacyclohexadecine-9,12-dione, 18-chloro-10,11,13,14,15,20-hexahydro-21-methoxy-10-methyl-]: the figures for the IC50 on EGFR and in the data set on SKOV3 cells were 501 nM and 158 nM, respectively.
